Laboratory results reported in ChEMBL document CHEMBL4765469, “2-((3,5-Dinitrobenzyl)thio)quinazolinones: Potent Antimycobacterial Agents Activated by Deazaflavin (F)-Dependent Nitroreductase (Ddn)” (J Med Chem, 2021).
Converted amounts (≈) assume the structure as drawn.

Assays:
[1] = Cytotoxicity in human MRC5 cells by neutral red uptake assay; type: cell-based
[2] = tested on: Mycobacterium tuberculosis; experiment: Antitubercular activity against Mycobacterium tuberculosis H37Rv ATCC 27294 grown under Middlebrook 7H9 Broth assessed as inhibition of all visible growth incubated for 7 to 14 days; type: functional; details: time 7-14 day
[3] = tested on: Mycobacterium tuberculosis; experiment: Antitubercular activity against Mycobacterium tuberculosis H37Rv; type: functional
[4] = tested on: Mycobacterium tuberculosis; experiment: Antitubercular activity against Mycobacterium tuberculosis 14A1 deficient in nitroreductase rv3547 assessed as inhibition of all visible growth grown under 7H9/ glucose liquid culture incubated for 7 to 14 days; type: functional; details: time 7-14 day
[5] = tested on: Mycobacterium tuberculosis; experiment: Antitubercular activity against Mycobacterium tuberculosis H37Rv ATCC 27294 grown under GAST/Fe medium assessed as inhibition of all visible growth incubated for 7 to 14 days; type: functional; details: time 7-14 day
[6] = tested on: Mycobacterium tuberculosis; experiment: Ratio of MIC for antitubercular activity against Mycobacterium tuberculosis H37Rv ATCC 27294 grown under 7H9/ glucose liquid culture in presence of BSA to MIC for antitubercular activity against Mycobacterium tuberculosis H37Rv ATCC 27294 grown under 7H9/ glucose liquid culture; type: functional; details: read-out: MIC>99
[7] = tested on: Mycobacterium tuberculosis; experiment: Antitubercular activity against Mycobacterium tuberculosis H37Rv ATCC 27294 grown under 7H9/ glucose liquid culture in presence of BSA assessed as inhibition of all visible growth incubated for 7 to 14 days; type: functional; details: time 7-14 day
[8] = (§1) Inhibition of Mycobacterium tuberculosis thymidylate kinase in presence of ATP, dTMP, NADH and phosphoenol pyruvate by spectrophotometric assay
[9] = tested on: Mycobacterium tuberculosis; experiment: Antitubercular activity against Mycobacterium tuberculosis H37Rv ATCC 27294 grown under 7H9/ADC assessed as inhibition of all visible growth incubated for 7 to 14 days; type: functional; details: time 7-14 day
[10] = Genotoxicity in Salmonella typhimurium TA98 up to 349 uM incubated for 48 hrs in absence of rat liver S9 fraction by Ames test; type: toxicity; details: salmonella enterica subsp. enterica serovar typhimurium, s9, 48 h
[11] = tested on: Mycobacterium tuberculosis; experiment: as §1

| Structure (SMILES) | CC50 [1] [µM] | MIC99 [2] [µM] | further results |
| --- | --- | --- | --- |
| O=c1[nH]c(SCc2cc([N+](=O)[O-])cc([N+](=O)[O-])c2)nc2ncccc12 | > 64 | ≥ 50 | – |
| CCOC(=O)C1=C(NC(=O)c2c(F)c(F)c(F)c(F)c2F)OC(C(N)=O)C1C (stereo unspecified) | – | – | MIC [3]: 0.5 µM |
| O=c1[nH]c(SCc2cc([N+](=O)[O-])cc([N+](=O)[O-])c2)nc2ccc(F)cc12 | > 64 | 1.2 (≈ 0.452 µg/mL) | MIC99 [4]: 6.25 µM (≈ 2.35 µg/mL); MIC99 [5]: 1.2 µM (≈ 0.452 µg/mL); MIC ratio, with BSA / without BSA [6]: 52 µM; MIC99 [7]: 6.25 µM |
| N#Cc1c(-c2cccc(Br)c2)nc(SCc2ccccc2)[nH]c1=O | > 36 | 25 (≈ 9.96 µg/mL) | IC50 [8]: 49 µM |
| Cc1ccc2nc(SCc3cc([N+](=O)[O-])cc([N+](=O)[O-])c3)[nH]c(=O)c2c1 | > 64 | 1.56 (≈ 0.581 µg/mL) | MIC99 [4]: > 50 µM; MIC99 [5]: 1.56 µM (≈ 0.581 µg/mL); MIC ratio, with BSA / without BSA [6]: 4 µM; MIC99 [7]: 6.25 µM |
| O=c1[nH]c(SCc2ccc([N+](=O)[O-])cc2[N+](=O)[O-])nc2ccccc12 | > 64 | > 50 | – |
| O=c1[nH]c([S+]([O-])Cc2cc([N+](=O)[O-])cc([N+](=O)[O-])c2)nc2ccccc12 (stereo unspecified) | > 64 | 50 (≈ 18.7 µg/mL) | IC50 [8]: 217 µM |
| O=c1[nH]c(SCc2ccccc2Cl)nc2ccccc12 | > 65 | 2.3 (≈ 0.696 µg/mL) | MIC99 [9]: > 50 µM; MIC99 [5]: 37 µM (≈ 11.2 µg/mL); MIC ratio, with BSA / without BSA [6]: > 21.7 µM; MIC99 [7]: > 50 µM |
| CN1CCN(c2ccc3nc(SCc4cc([N+](=O)[O-])cc([N+](=O)[O-])c4)[nH]c(=O)c3c2)CC1 | 49 | 9.4 (≈ 4.29 µg/mL) | MIC99 [4]: 37 µM (≈ 16.9 µg/mL); MIC99 [5]: 9.4 µM (≈ 4.29 µg/mL); MIC ratio, with BSA / without BSA [6]: 1 µM; MIC99 [7]: 9.4 µM |
| O=c1[nH]c(SCc2cc([N+](=O)[O-])cc([N+](=O)[O-])c2)nc2ccc(Br)cc12 | > 64 | 3.13 (≈ 1.37 µg/mL) | MIC99 [4]: > 50 µM; MIC99 [5]: 3.13 µM (≈ 1.37 µg/mL); MIC ratio, with BSA / without BSA [6]: 11.8 µM; MIC99 [7]: 37 µM |
| Cn1c(SCc2cc([N+](=O)[O-])cc([N+](=O)[O-])c2)nc2ccccc2c1=O | > 64 | 1.56 (≈ 0.581 µg/mL) | MIC99 [9]: 3.13 µM (≈ 1.17 µg/mL); MIC99 [5]: 0.39 µM (≈ 0.145 µg/mL); MIC ratio, with BSA / without BSA [6]: 2 µM; MIC99 [7]: 3.13 µM |
| O=c1[nH]c(SCc2ccc([N+](=O)[O-])s2)nc2ccccc12 | > 64 | 350 (≈ 112 µg/mL) | – |
| CCOC(=O)c1c(-c2ccccc2)oc2ccc(O)c(CN3CCC(C)CC3)c12 | – | – | MIC [3]: 1 µg/mL |
| O=[N+]([O-])c1ccc2c(c1)Cc1ccccc1-2 [2-NITROFLUORENE] | – | – | Activity [10]: Toxic |
| O=c1[nH]c(SCc2ccc(-c3ccccc3)cc2)nc2ccccc12 | > 64 | > 50 | – |
| O=c1[nH]c(SCc2ccc([N+](=O)[O-])cc2)nc2ccccc12 | > 64 | ≥ 50 | – |
| O=c1[nH]c(SCc2cc([N+](=O)[O-])cc([N+](=O)[O-])c2)nc2cccnc12 | > 64 | 19 (≈ 6.83 µg/mL) | MIC99 [4]: 50 µM (≈ 18 µg/mL); MIC99 [5]: 12.5 µM (≈ 4.49 µg/mL); MIC ratio, with BSA / without BSA [6]: > 2.6 µM; MIC99 [7]: > 50 µM |
| O=c1[nH]c(SCc2cccc([N+](=O)[O-])c2)nc2ccccc12 | > 64 | > 50 | – |
| CCOC(=O)C1=C(NC(=O)c2c(F)c(F)c(F)c(F)c2F)OC2CN(CC)CCC12 (stereo unspecified) | – | – | MIC [3]: 0.69 µM |
| CC1CCN(Cc2c(O)ccc3oc4c5ccccc5oc(=O)c4c23)CC1 | – | – | MIC [3]: 0.125 µg/mL |
| CSc1nc(-c2cccc(Br)c2)c(C#N)c(=O)[nH]1 | > 64 | 25 (≈ 8.05 µg/mL) | IC50 [8]: 82 µM |
| O=c1[nH]c(SCc2ccccc2[N+](=O)[O-])nc2ccccc12 | > 64 | 12.5 (≈ 3.92 µg/mL) | MIC99 [9]: > 50 µM; MIC99 [5]: 25 µM (≈ 7.83 µg/mL); MIC ratio, with BSA / without BSA [6]: > 4 µM; MIC99 [7]: > 50 µM |
| CSc1cc(-c2ccccc2)nc(O)c1C#N | – | – | MIC [3]: > 64 µM |
| COc1ccc(CSc2nc3ccccc3c(=O)[nH]2)cc1 | > 64 | > 50 | – |

| Structure (SMILES) | CC50 [1] [µM] | MIC99 [2] [µM] | further results |
| --- | --- | --- | --- |
| Oc1nc(SCc2cccc(Cl)c2)nc2ccccc12 | > 64 | 3.13 (≈ 0.948 µg/mL) | MIC99 [9]: > 50 µM; MIC99 [5]: 19 µM (≈ 5.75 µg/mL); MIC ratio, with BSA / without BSA [6]: > 16 µM; MIC99 [7]: > 50 µM |
| O=c1[nH]c(SCc2cc([N+](=O)[O-])cc([N+](=O)[O-])c2)nc2ccncc12 | > 64 | > 50 | – |
| Cc1ccc(CSc2nc(O)c3ccccc3n2)cc1 | > 64 | > 50 | – |
| O=c1[nH]c(SCc2cc([N+](=O)[O-])cc([N+](=O)[O-])c2)nc2ccc(N3CCOCC3)cc12 | > 64 | 4.7 (≈ 2.08 µg/mL) | MIC99 [4]: 19 µM (≈ 8.43 µg/mL); MIC99 [5]: 3.13 µM (≈ 1.39 µg/mL); MIC ratio, with BSA / without BSA [6]: 0.66 µM; MIC99 [7]: 3.13 µM |
| O=C(CSc1nc2c(F)cccc2c(=O)[nH]1)NC1CCC(F)(F)CC1 | – | – | MIC [3]: 0.09 µM |
| O=c1[nH]c(SCc2ccccc2)nc2ccccc12 | > 64 | 12.5 (≈ 3.35 µg/mL) | MIC99 [9]: > 50 µM; MIC99 [5]: 19 µM (≈ 5.1 µg/mL); MIC ratio, with BSA / without BSA [6]: > 4 µM; MIC99 [7]: > 50 µM |
| O=c1[nH]c(SCc2cccs2)nc2ccccc12 | > 64 | > 50 | – |
| O=c1[nH]c(SCc2cc([N+](=O)[O-])cc([N+](=O)[O-])c2)nc2c(Cl)cccc12 | > 64 | > 50 | – |
| COc1cccc(CSc2nc3ccccc3c(=O)[nH]2)c1 | > 64 | 0.78 (≈ 0.233 µg/mL) | MIC99 [9]: > 50 µM; MIC99 [5]: 50 µM (≈ 14.9 µg/mL); MIC ratio, with BSA / without BSA [6]: > 64 µM; MIC99 [7]: > 50 µM |
| Oc1nc(SCc2ccc(Cl)cc2)nc2ccccc12 | > 64 | > 50 | – |
| O=c1[nH]c(SCc2cc([N+](=O)[O-])cc([N+](=O)[O-])c2)nc2cc(Cl)ccc12 | > 64 | 2.3 (≈ 0.903 µg/mL) | MIC99 [9]: 25 µM (≈ 9.82 µg/mL); MIC99 [5]: 0.72 µM (≈ 0.283 µg/mL); MIC ratio, with BSA / without BSA [6]: 10.8 µM; MIC99 [7]: 25 µM |
| O=c1[nH]c(SCc2cc([N+](=O)[O-])cc([N+](=O)[O-])c2)nc2cnccc12 | > 64 | > 50 | – |
| NNC(=O)c1ccncc1 | – | – | MIC>99 [11]: 0.15 µM |
| N#Cc1c(-c2cccc(Br)c2)nc(SCc2cc([N+](=O)[O-])cc([N+](=O)[O-])c2)[nH]c1=O | > 64 | > 64 | IC50 [8]: 4.3 µM |
| O=c1[nH]c(SCc2ccc(Cl)c(Cl)c2)nc2ccccc12 | > 64 | > 50 | – |
| O=C(CSc1nc2ccccc2c(=O)[nH]1)NC1CCCCC1 | – | – | MIC [3]: 0.3 µM |
| CN(C)c1ccc2nc(SCc3cc([N+](=O)[O-])cc([N+](=O)[O-])c3)[nH]c(=O)c2c1 | 14 | > 50 | – |
| O=c1[nH]c(SCc2cc([N+](=O)[O-])cc(C(F)(F)F)c2)nc2ccccc12 | > 64 | > 50 | – |
| O=c1[nH]c(SCc2cc([N+](=O)[O-])cc([N+](=O)[O-])c2)nc2ccc(N3CCCCC3)cc12 | > 64 | > 50 | – |
| O=c1[nH]c(SCc2cc([N+](=O)[O-])cc([N+](=O)[O-])c2)nc2ccc(Cl)cc12 | > 64 | 0.78 (≈ 0.306 µg/mL) | MIC99 [9]: 4.7 µM (≈ 1.85 µg/mL); MIC99 [5]: 0.2 µM (≈ 0.0786 µg/mL); MIC ratio, with BSA / without BSA [6]: 4 µM; MIC99 [7]: 3.13 µM |
| COc1ccccc1CSc1nc2ccccc2c(=O)[nH]1 | – | > 50 | – |
| O=c1[nH]c(SCc2c([N+](=O)[O-])cccc2[N+](=O)[O-])nc2ccccc12 | > 64 | > 50 | – |
| O=c1[nH]c(SCc2cc([N+](=O)[O-])cc([N+](=O)[O-])c2)nc2cccc(Cl)c12 | > 64 | ≥ 50 | – |
| O=c1[nH]c(SCc2ccc([N+](=O)[O-])o2)nc2ccccc12 | 35 | > 50 | – |
